In PMC2644050 (The Journal of pharmacology and experimental therapeutics, 2008):

Assays:
[1] = molecular target: T1, human muscarinic M1 receptor (CHO M1) (Homo sapiens, UniProt P11229); experiment: stimulation of phosphoinositide hydrolysis, [3H]inositol pre-labeling; type: cell-based
T1 sequence (P11229 1-460): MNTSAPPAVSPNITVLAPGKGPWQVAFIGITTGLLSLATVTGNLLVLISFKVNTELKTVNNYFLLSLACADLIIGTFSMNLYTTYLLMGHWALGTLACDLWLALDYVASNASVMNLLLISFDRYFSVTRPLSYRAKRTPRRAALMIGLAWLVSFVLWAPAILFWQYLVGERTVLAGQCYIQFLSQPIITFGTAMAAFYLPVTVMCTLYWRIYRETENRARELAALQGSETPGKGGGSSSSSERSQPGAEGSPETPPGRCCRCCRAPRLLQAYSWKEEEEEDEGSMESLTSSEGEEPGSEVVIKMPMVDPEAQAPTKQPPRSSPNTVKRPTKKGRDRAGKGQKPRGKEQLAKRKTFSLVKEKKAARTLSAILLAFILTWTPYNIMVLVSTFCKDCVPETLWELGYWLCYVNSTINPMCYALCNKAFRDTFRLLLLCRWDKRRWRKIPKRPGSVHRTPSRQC

[2] = molecular target: T2, human muscarinic M4 receptor (CHO M4) (Homo sapiens, UniProt P08173); experiment: inhibition of forskolin-stimulated cAMP accumulation, [3H]adenine pre-labeling; type: cell-based; settings: CHO M4 cells, Gi pathway, 10 μM forskolin; agonist
T2 sequence (P08173 1-479): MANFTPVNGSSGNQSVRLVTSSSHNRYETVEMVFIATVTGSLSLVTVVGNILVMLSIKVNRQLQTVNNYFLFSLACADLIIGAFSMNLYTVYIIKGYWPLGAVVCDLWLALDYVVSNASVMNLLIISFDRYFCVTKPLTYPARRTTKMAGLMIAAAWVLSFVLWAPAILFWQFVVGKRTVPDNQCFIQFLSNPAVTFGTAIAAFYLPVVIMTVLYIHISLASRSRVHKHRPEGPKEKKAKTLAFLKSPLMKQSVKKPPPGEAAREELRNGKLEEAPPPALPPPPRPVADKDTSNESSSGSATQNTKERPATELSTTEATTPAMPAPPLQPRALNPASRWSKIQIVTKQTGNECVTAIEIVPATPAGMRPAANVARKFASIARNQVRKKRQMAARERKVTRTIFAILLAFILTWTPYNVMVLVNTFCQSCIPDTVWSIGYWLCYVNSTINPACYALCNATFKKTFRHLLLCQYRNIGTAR

Q: What does the source list for C[N+](C)(C)CC#CCN1CCCC1=O [oxotremorine-M]?
A: EC50 (μM) [1]: 0.041 (−7.39 ± .05) μM; EC50 (μM) [2]: 0.030 (−7.52 ± .07) μM
